# Experimental data taken from patent publication US20070149466A1, “Methods and related compositions for treating or preventing obesity, insulin resistance disorders, and mitochondrial-associated disorders” (priority 2005, published 2007).
# How the values were obtained:
# [1] = system: HDAC; conditions: cited from earlier work; for concentration at which HDAC is inhibited: literature statements, in vitro or in vivo for SAHA, SBHA, CBHA
# [2] = system: Zucker diabetic fatty rats; assay: Zucker diabetic rat model, 42 days oral dosing; assay type: in vivo; conditions: for daily body weights / food intake: 200 mg/kg orally twice a day, 43 days, vs vehicle and other groups; for fasting serum glucose levels: day 8, 15, 22, 29, 36 and 43, 200 mg/kg orally twice a day
# Procedure: Groups of 8 rats were used for each group (6 weeks old, 190±10 grams). […] Blood samples were collected from the retro-orbital sinus 35 minutes before glucose load (Fasting glucose) and 90 minutes post oral glucose load. Serum glucose levels were determined by means of a Hitachi Model 750 Automatic Analyzer.
# [3] = system: male C57BL/6J mice; assay: Diet induced obesity (DIO) mouse model: body weight, food intake, body fat content (dexa scanning); assay type: in vivo; conditions: resveratrol 400 mg/kg/day co-administered with a high fat diet
# Procedure: The mice undergo an extensive phenotypic and molecular analysis to define the regulatory pathways affected by Sirt-1 activation.
# (§1) In this long-term study, 50 male C57BL6J mice (5 weeks of age) are analyzed during a period of 18 weeks.
# During the entire study, body weight and food intake
# are monitored twice weekly.
# During week 1, body composition is analyzed, for all groups, by dual energy X-ray absorptiometry (dexascan).
# During week 12, body weight composition is again analysed by dexascan for all groups.
# Diet. The standard rodent chow diet is obtained from UAR and the high fat diet is obtained from Research Diet. Mice are fed, either with chow diet (16% protein, 3% fat, 5% fiber, 5% ash) or with high fat diet (26.2% protein, 26.3% carbohydrate, 34.9% fat). Resveratrol is mixed with either powdered chow diet or powdered high fat diet and pellets are reconstituted. Control groups receive pellets as provided by the company. Due to the consistency of the high fat diet, it is not necessary to add water to mix it with the resveratrol. […]
# Determination of body fat content by Dexa scanning. […] Bone mineral density (BMD in g/cm^2) and body composition are determined by using the PIXIMUS software (version 1.4x, GE Medical Systems).
# The bottom panels show comparisons of body fat content, as analyzed by dexa scanning, at […] of treatment for mice in the four dietary groups. […]
# [4] = system: male C57BL/6J mice; assay: Energy expenditure by indirect calorimetry (oxygen consumption) in DIO mice; assay type: in vivo; conditions: 400 mg/kg/day co-administrated with a high fat diet
# Procedure: Nocturnal energy expenditure of groups 1, 3 and 5 (chow diet, high fat diet and high fat diet 400 mg) is measured by indirect calorimetry. Energy expenditure. Energy expenditure is evaluated through indirect calorimetry by measuring oxygen consumption with the Oxymax apparatus (Columbus Instruments, Columbus, Ohio) during 12 h. This system consists of an open circuit with air coming in and out of plastic cages (one mouse per cage). Animals are allowed free access to food and water. A very precise CO2 and O2 sensor measures the difference in O2 and CO2 concentrations in both air volumes, which gives the amount of oxygen consumed in a period of time given that the air flow of air coming in the cage is constant. The data coming out of the apparatus are processed in a connected computer, analyzed, and shown in an exportable Excel file. The values are expressed as ml.kg^−1.h^−1, which is commonly known as the VO2.
# [5] = system: male C57BL/6J mice; assay: Circadian (spontaneous locomotor) activity in DIO mice; assay type: in vivo; conditions: 400 mg/kg/day, high fat diet
# Procedure: During week 13, circadian activity of groups 3, 4 and 5 (high fat diet fed mice) is studied during a period of […]. A circadian activity measurement is performed on groups […]. Spontaneous locomotor activity is measured using individual boxes, each composed with a sliding floor, a detachable cage, and equipped with infra-red captors allowing measurement of ambulatory locomotor activity and rears. Boxes are linked to a computer using an electronic interface (Imetronic, Pessac, France). Mice are tested for 32 h in order to measure habituation to the apparatus as well as nocturnal and diurnal activities. The quantity of water consumed is measured during the test period using an automated lickometer.
# [6] = system: high fat diet fed C57BL/6J mice; assay: Intraperitoneal and oral glucose tolerance tests in DIO mice; assay type: in vivo; conditions: 400 mg/kg/day, IPGTT and OGTT 2 g glucose/kg
# Procedure: During week 10, glucose tolerance is determined by subjecting all the animals to an intraperitoneal glucose tolerance test (IPGTT). Animals are fasted for 12 h prior to this test. During week 16, glucose tolerance is analysed by performing an oral glucose tolerance test (OGTT) on a subset of animals (n=5) of groups 3, 4 and 5, and an intraperitoneal insulin sensitivity test (IPIST) on another subset of animals (n=5). During these experiments, blood is also collected to analyze insulin levels. Animals are fasted 12 h prior these tests. Intraperitoneal glucose tolerance test—Oral glucose tolerance test. IPGTT and OGTT are performed in mice which are fasted overnight (12 h). Mice are either injected intraperitoneally (IPGTT) or orally gavaged (OGTT) with a solution of 20% glucose in sterile saline (0.9% NaCl) at a dose of 2 g glucose/kg body weight. Blood is collected from the tail vein, for glucose and insulin monitoring, prior to and at 15, 30, 45, 75, 90, 120, 150, 180 min after administration of the glucose solution. The incremental area of the glucose curve is calculated as a measure of insulin sensitivity, whereas the corresponding insulin levels indicate insulin secretory reserves.
# [7] = system: male C57BL/6 mice; assay: Cold test (body temperature at 4° C.) in DIO mice; assay type: in vivo; conditions: 400 mg/kg/day coadministered with a high fat diet, p<0.05
# Procedure: During week 18, a cold test is performed on all animals by measuring body temperature of animals exposed to 4° C.
# [8] = Tolerability of resveratrol as a food additive; assay type: in vivo
# Procedure: as §1
# [9] = system: mice; assay: Serum biochemical analysis in DIO mice; assay type: in vivo; conditions: 16 weeks, high fat plus 400 mg/kg/day
# Procedure: Diet induced obesity was established in mice as described above in Example 1.
# The values shown are based on an average of measurements from 10 animals for each dietary group. Levels of total cholesterol, HDL-cholestrol, LDL-cholesterol, triglycerides, free fatty acids, aspartate aminotransferase […], alanine aminotransferase (ALAT), and alkaline […] (ALP) were determined using standard procedures. ASAT, ALP and ALAT were measured by kinetic UV and colour tests using methods based on the recommendations of the ‘International Federation for Clinical Chemistry’ (IFCC) on an Olympus AU-400 automated laboratory work station. AST was quantified using the OSR6109 reagent system which is based on the activity of AST that catalyzes the transamination of aspartate and 2-oxoglutarate to L-glutamate and oxalacetate. […] The decrease in absorbance due to the consumption of NADH is measured at […] and is proportional to the AST activity in the sample. ALT was quantified using the OSR6107 reagent system which is based on the activity of ALT that transfers the amino group from alanine to 2-oxoglutarate to form pyruvate and glutamate. […] As with the AST measurement, consumption of NADH is measured at […] and is proportional to the amount of ALT activity in the sample. ALP is measured by determining the rate of conversion of p-nitro-phenyl phosphate to p-nitrophenol (pNP). […]
# [10] = system: mice; assay: Hematoxylin and eosin staining of tissue sections of DIO mice; assay type: in vivo; conditions: 16 weeks, high fat plus 400 mg/kg/day vs control and high fat diets
# Procedure: After collection, tissues were fixed in 4% paraformaldehyde, processed and embedded in paraffin prior to sectioning (10 microns) and staining. Tissue processing, paraffin embedding, tissue sectioning and hematoxylin and eosin staining of histological sections were carried out using standard procedures and commercially available materials (see e.g., McManus J. F. A. and Mowry, R. W., Staining Methods. Histologic and Histochemcial, Harper and Row, New York 1960; Luna L. G., Hitopathological Methods and Color Atlas of Special Stains and Tissue Artifacts, Johnson Printers, Downers Grove, Ill. 1992; Gabe M., Techniques histologiques. Masson, Paris 1968; and world wide web at statlab.com).
# [11] = system: mice; assay: Succinate dehydrogenase staining of brown adipose tissue and muscle of DIO mice; assay type: in vivo; conditions: 16 weeks, HF+R400 vs HF diet
# Procedure: Succinate dehydrogenase is a marker of mitochondrial activity and produces a dark stain in the photos. Tissues were collected and immediately frozen in methylbutane, then kept at −80° C. prior to sectioning and staining. Succinate Dehydrogenase staining was carried out using standard procedures and commercially available reagents (see e.g., Reichmann H and Wildenauer D, Histochemistry, 96: 251-3 (1991)).
# [12] = system: mice; assay: Transmission electron microscopy of gastrocnemius muscle and brown adipose tissue of DIO mice; assay type: in vivo; conditions: 16 weeks
# Procedure: Transmission electron microscopy was carried out using standard techniques as described below. The mitochondria can be seen as the darker oblong Z lines crossing the I lines.
# Transmission electron microscopy was carried out using standard techniques as described below. Fat droplets may be observed at either magnification as white or light gray droplets and mitochondria can be observed at the higher magnification as roundish striated structures.
# Transmission Electronic Microscopy/Preparation of Samples: The biopsies of gastrocnemius muscle and brown adipose tissue were cut in pieces of 1 mm and fixed immediately after collection in Kamovsky fixative (glutaraldehyde in cacodylate buffer) and kept at 4° C. without time limitation. The second step is the post-fixation with 1% osmium tetraoxide in 0.1M cacodylate buffer for 1 h at 4° C. Tissues were then dehydrated through successive baths of graded alcohol followed by a propylene oxide bath, and then a treatment with a propylene oxide and resine mix before to be embedded in a pure epoxy resine (araldite, Epon 812) which becomes solid after 48 h at 60° C. Semithin sections were cut at 2 μm and stained with toluidine blue, and histologically analysed by light microscopy. Ultrathin sections were cut at 70 nm and contrasted with uranyl acetate and lead citrate, and examined with a Philips 208 electron microscope.
# [13] = system: PGC1 alpha; assay: Immunoblot of PGC1 alpha acetylation in gastrocnemius muscle nuclear extracts; assay type: in vivo, mice; conditions: high fat diet plus 400 mg/kg resveratrol vs high fat diet, 15 weeks
# Source text: Following immunoprecipitation with a PGC 1 alpha antibody (Santa Cruz Biotechnology, cat #SC-13067), secondary western blots were probed with either a acetylated lysine specific monoclonal (Cell Signaling Technology, Cat #9441; top left panel) or a PGC1alpha antibody (Santa Cruz Biotechnology, cat #SC-13067; lower left panel). Exposures were scanned and the acetylation status of PGC1alpha compared to total PGC1alpha of animals on either the HF or HF+[…] is shown in the right hand panel.
# [14] = high fat diet plus 400 mg/kg/day resveratrol
compound,measurement,setting,value
C/C=C1\NC(=O)[C@H]2CSSCC/C=C/[C@H](CC(=O)N[C@H](C(C)C)C(=O)N2)OC(=O)[C@H](C(C)C)NC1=O [Depsipeptide],concentration at which HDAC is inhibited,[1],micromolar concentrations
"CN(C)C(=N)N=C(N)N [metformin, reference compound]",daily body weights,[2],no statistical difference
same,food intake,[2],no statistical difference
same,fasting serum glucose levels,[2],no difference
depudecin,concentration at which HDAC is inhibited,[1],micromolar concentrations
"Oc1ccc(/C=C/c2cc(O)cc(O)c2)cc1 [resveratrol, 3,5,4′-Trihydroxy-trans-stilbene]",diet-induced obesity,[3],prevents diet-induced obesity
same,energy expenditure,[4],increases energy expenditure
same,circadian locomotor activity,[5],significantly diminishes the circadian locomotor activity
same,glucose tolerance,[6],increases glucose tolerance
same,adaptive thermogenesis (body temperature during 6 h cold test),[7],enhances adaptive thermogenesis
same,food aversion,[8],does not cause food aversion
same,tolerability,[8],well tolerated
same,daily body weights,[2],no statistical difference
same,food intake,[2],no statistical difference
same,fasting serum glucose levels,[2],no difference
same,"serum biochemical markers (total, HDL and LDL cholesterol, triglycerides, free fatty acids, ASAT, ALAT, ALP)",[9],fell within the normal range
same,"histological changes (liver, epididymal WAT, BAT, gastrocnemius muscle; hematoxylin and eosin)",[10],few histological changes
same,"succinate dehydrogenase staining (marker of mitochondrial activity), brown adipose tissue",[11],significantly higher
same,"succinate dehydrogenase staining (marker of mitochondrial activity), gastrocnemius",[11],significantly higher
same,"succinate dehydrogenase staining, soleus",[11],little change
same,"mitochondria in gastrocnemius muscle (non-oxidative fibers), transmission electron microscopy",[12]; HF+R400 vs control or high fat diets,more mitochondria
same,"fat droplets in brown adipose tissue, transmission electron microscopy",[12]; [14],smaller fat droplets
same,"mitochondria in brown adipose tissue, transmission electron microscopy",[12]; [14],more mitochondria
same,PGC1 alpha deacetylation,[13],increases PGC1 alpha deacetylation
"O=C(/C=C/c1cccc(C(=O)NO)c1)NO [CBHA, m-carboxy-cinnamic acid bishydroxamic acid]",concentration at which HDAC is inhibited,[1],micromolar concentration or lower
trichostatin A [TSA],inhibition of mammalian HDAC,[1]; Yoshida et al. (1990),potent inhibitor
